In patent publication US20240166609A1, “ANTIBACTERIAL COMPOUNDS” (BLACKSMITH MEDICINES, INC., priority 2021, published 2024):
≈ marks a conversion by molar mass, not a printed value.

Legend:
Assay in all cases: Bacterial susceptibility testing, MIC by broth microdilution (CLSI)
Assay type in all cases: cell-based
P. aeruginosa ATCC27835 = settings: Pseudomonas aeruginosa, 35° C., 18-24 h, read-out: MIC (μg/mL) P. aeruginosa ATCC27835
Description: (§1) Minimal inhibitory concentrations (MIC) were determined by the broth microdilution method in accordance with the Clinical and Laboratory Standards Institute (CLSI) guidelines. In brief, organism suspensions were adjusted to a final inoculum between 3×10^5 and 7×10^5 colony-forming units (CFU)/mL. Drug dilutions and inocula were made in sterile, cation adjusted Mueller-Hinton Broth (Beckton Dickinson). In wells, an inoculum volume of 100 μL was mixed to 2 μL of DMSO with 2-fold serial dilutions of drug. All inoculated microdilution trays were incubated in ambient air at 35° C. for 18-24 h. Following incubation, the lowest concentration of the drug that prevented visible growth (OD600 nm<0.05) was recorded as the MIC. Performance of the assay was monitored by the use of laboratory quality-control strains and compounds with defined MIC spectrum, in accordance with CLSI guidelines

E. coli ATCC25922 = settings: Escherichia coli, 35° C., 18-24 h, read-out: MIC (μg/mL) E. coli ATCC25922
Description: as §1

P. aeruginosa 209 PAO1 = settings: Pseudomonas aeruginosa, 35° C., 18-24 h, read-out: MIC (μg/mL) P. aeruginosa 209 PAO1
Description: as §1

K. pneumoniae ATCC13883 = settings: Klebsiella pneumoniae, 35° C., 18-24 h, read-out: MIC (μg/mL) K. pneumoniae ATCC13883
Description: as §1

SMILES: C[C@@H](O)c1nccn1[C@H](C#Cc1ccc(-c2ccc(OCC(N)CO)cc2)cc1)CO (mixture of isomers) [Compound 1, (2R)-4-(4′-(2-amino-3-hydroxypropoxy)-[1,1′-biphenyl]-4-yl)-2-(2-((R)-1-hydroxyethyl)-1H-imidazol-1-yl)but-3-yn-1-ol]
- MIC (P. aeruginosa ATCC27835): 1 µg/mL (≈ 2.37 µM)
- MIC (E. coli ATCC25922): 8 µg/mL (≈ 19 µM)
- MIC (P. aeruginosa 209 PAO1): 1 µg/mL (≈ 2.37 µM)
- MIC (K. pneumoniae ATCC13883): 32 µg/mL (≈ 75.9 µM)

SMILES: C[C@H](O)c1nccn1[C@@H](C#Cc1ccc(-c2ccc(O[C@@H]3C[C@H]3N)cc2)cc1)CO (racemic) [Compound 4, (S)-4-(4′-((trans)-2-aminocyclopropoxy)-[1,1′-biphenyl]-4-yl)-2-(2-((S)-1-hydroxyethyl)-1H-imidazol-1-yl)but-3-yn-1-ol]
- MIC (P. aeruginosa ATCC27835): 2 µg/mL (≈ 4.96 µM)
- MIC (E. coli ATCC25922): 0.25 µg/mL (≈ 0.62 µM)
- MIC (P. aeruginosa 209 PAO1): 2 µg/mL (≈ 4.96 µM)
- MIC (K. pneumoniae ATCC13883): 0.5 µg/mL (≈ 1.24 µM)

SMILES: C[C@H](O)c1nccn1[C@@H](C#Cc1ccc(-c2ccc(C(O)CO)cc2)cc1)CO (mixture of isomers) [Compound 5, 1-(4′-((S)-4-hydroxy-3-(2-((S)-1-hydroxyethyl)-1H-imidazol-1-yl)but-1-yn-1-yl)-[1,1′-biphenyl]-4-yl)ethane-1,2-diol]
- MIC (P. aeruginosa ATCC27835): 4 µg/mL (≈ 10.2 µM)
- MIC (E. coli ATCC25922): 8 µg/mL (≈ 20.4 µM)
- MIC (P. aeruginosa 209 PAO1): 4 µg/mL (≈ 10.2 µM)
- MIC (K. pneumoniae ATCC13883): 16 µg/mL (≈ 40.8 µM)

SMILES: C[C@H](O)c1nccn1[C@@H](C#Cc1ccc(-c2ccc(COCC(N)CO)cc2)cc1)CO (mixture of isomers) [Compound 6, (2S)-4-(4′-((2-amino-3-hydroxypropoxy)methyl)-[1,1′-biphenyl]-4-yl)-2-(2-((S)-1-hydroxyethyl)-1H-imidazol-1-yl)but-3-yn-1-ol]
- MIC (P. aeruginosa ATCC27835): 4 µg/mL (≈ 9.18 µM)
- MIC (E. coli ATCC25922): 16 µg/mL (≈ 36.7 µM)
- MIC (P. aeruginosa 209 PAO1): 2 µg/mL (≈ 4.59 µM)
- MIC (K. pneumoniae ATCC13883): 32 µg/mL (≈ 73.5 µM)

SMILES: C[C@H](O)c1nccn1[C@@H](C#Cc1ccc(-c2ccc(O[C@H]3COC[C@@H]3O)cc2)cc1)CO (racemic) [Compound 46, (cis)-4-((4′-((S)-4-hydroxy-3-(2-((S)-1-hydroxyethyl)-1H-imidazol-1-yl)but-1-yn-1-yl)-[1,1′-biphenyl]-4-yl)oxy)tetrahydrofuran-3-ol]
- MIC (P. aeruginosa ATCC27835): 2 µg/mL (≈ 4.6 µM)
- MIC (E. coli ATCC25922): 1 µg/mL (≈ 2.3 µM)
- MIC (P. aeruginosa 209 PAO1): 1 µg/mL (≈ 2.3 µM)
- MIC (K. pneumoniae ATCC13883): 2 µg/mL (≈ 4.6 µM)

SMILES: C[C@H](O)c1nccn1[C@H](C#Cc1ccc(-c2ccc(OC[C@@H](N)CO)cc2)cc1)CO [Compound 2, (R)-4-(4′-((S)-2-amino-3-hydroxypropoxy)-[1,1′-biphenyl]-4-yl)-2-(2-((S)-1-hydroxyethyl)-1H-imidazol-1-yl)but-3-yn-1-ol]
- MIC (P. aeruginosa ATCC27835): 2 µg/mL (≈ 4.74 µM)
- MIC (E. coli ATCC25922): 8 µg/mL (≈ 19 µM)
- MIC (P. aeruginosa 209 PAO1): 2 µg/mL (≈ 4.74 µM)
- MIC (K. pneumoniae ATCC13883): 16 µg/mL (≈ 38 µM)

SMILES: C[C@H](O)c1nccn1CC#Cc1ccc(-c2ccc(C3CC(NCC(=N)N)C3)cc2)cc1 (stereo partly drawn) [Compound 25, (S)-2-((3-(4′-(3-(2-(1-hydroxyethyl)-1H-imidazol-1-yl)prop-1-yn-1-yl)-[1,1′-biphenyl]-4-yl)cyclobutyl)amino)acetimidamide]
- MIC (P. aeruginosa ATCC27835): 4 µg/mL (≈ 9.36 µM)
- MIC (P. aeruginosa 209 PAO1): 2 µg/mL (≈ 4.68 µM)
- MIC (K. pneumoniae ATCC13883): 0.5 µg/mL (≈ 1.17 µM)

SMILES: C[C@H](O)c1nccn1CC#Cc1ccc(-c2ccc(C3CC(NCC(=O)O)C3)cc2)cc1 (stereo partly drawn) [Compound 26, (S)-(3-(4′-(3-(2-(1-hydroxyethyl)-1H-imidazol-1-yl)prop-1-yn-1-yl)-[1,1′-biphenyl]-4-yl)cyclobutyl)glycine]
- MIC (P. aeruginosa ATCC27835): 4 µg/mL (≈ 9.31 µM)
- MIC (P. aeruginosa 209 PAO1): 4 µg/mL (≈ 9.31 µM)
- MIC (K. pneumoniae ATCC13883): 4 µg/mL (≈ 9.31 µM)

SMILES: C[C@H](O)c1nccn1CC#Cc1ccc(-c2ccc(C3CC(NCc4cocn4)C3)cc2)cc1 (stereo partly drawn) [Compound 27, (S)-1-(1-(3-(4′-(3-((oxazol-4-ylmethyl)amino)cyclobutyl)-[1,1′-biphenyl]-4-yl)prop-2-yn-1-yl)-1H-imidazol-2-yl)ethan-1-ol]
- MIC (P. aeruginosa ATCC27835): 4 µg/mL (≈ 8.84 µM)
- MIC (P. aeruginosa 209 PAO1): 2 µg/mL (≈ 4.42 µM)
- MIC (K. pneumoniae ATCC13883): 0.5 µg/mL (≈ 1.1 µM)

SMILES: C[C@H](O)c1nccn1[C@@H](C#Cc1ccc(-c2ccc(C3CC(NCC#N)C3)cc2)cc1)CO (stereo partly drawn) [Compound 28, 2-((3-(4′-((S)-4-hydroxy-3-(2-((S)-1-hydroxyethyl)-1H-imidazol-1-yl)but-1-yn-1-yl)-[1,1′-biphenyl]-4-yl)cyclobutyl)amino)acetonitrile]
- MIC (P. aeruginosa ATCC27835): 4 µg/mL (≈ 9.08 µM)
- MIC (P. aeruginosa 209 PAO1): 2 µg/mL (≈ 4.54 µM)
- MIC (K. pneumoniae ATCC13883): 0.5 µg/mL (≈ 1.13 µM)

SMILES: C[C@H](O)c1nccn1[C@@H](C#Cc1ccc(-c2ccc(C3CC(NCc4ncon4)C3)cc2)cc1)CO (stereo partly drawn) [Compound 29, (S)-4-(4′-(3-(((1,2,4-oxadiazol-3-yl)methyl)amino)cyclobutyl)-[1,1′-biphenyl]-4-yl)-2-(2-((S)-1-hydroxyethyl)-1H-imidazol-1-yl)but-3-yn-1-ol]
- MIC (P. aeruginosa ATCC27835): 2 µg/mL (≈ 4.14 µM)
- MIC (P. aeruginosa 209 PAO1): 2 µg/mL (≈ 4.14 µM)
- MIC (K. pneumoniae ATCC13883): 0.5 µg/mL (≈ 1.03 µM)

SMILES: C[C@H](O)c1nccn1[C@@H](C#Cc1ccc(-c2ccc(C3CC(O)C3)cc2)cc1)CO (stereo partly drawn) [Compound 30, 3-(4′-((S)-4-hydroxy-3-(2-((S)-1-hydroxyethyl)-1H-imidazol-1-yl)but-1-yn-1-yl)-[1,1′-biphenyl]-4-yl)cyclobutan-1-ol]
- MIC (P. aeruginosa ATCC27835): 2 µg/mL (≈ 4.97 µM)
- MIC (P. aeruginosa 209 PAO1): 0.5 µg/mL (≈ 1.24 µM)
- MIC (K. pneumoniae ATCC13883): 0.5 µg/mL (≈ 1.24 µM)

SMILES: C[C@H](O)c1nccn1[C@@H](C#Cc1ccc(-c2ccc(C3CC(NCC(F)F)C3)cc2)cc1)CO (stereo partly drawn) [Compound 31, (S)-4-(4′-(3-((2,2-difluoroethyl)amino)cyclobutyl)-[1,1′-biphenyl]-4-yl)-2-(2-((S)-1-hydroxyethyl)-1H-imidazol-1-yl)but-3-yn-1-ol]
- MIC (P. aeruginosa ATCC27835): 4 µg/mL (≈ 8.59 µM)
- MIC (P. aeruginosa 209 PAO1): 2 µg/mL (≈ 4.3 µM)
- MIC (K. pneumoniae ATCC13883): 0.25 µg/mL (≈ 0.537 µM)

SMILES: C[C@H](O)c1nccn1[C@@H](C#Cc1ccc(-c2ccc(C3CC(NCCC#N)C3)cc2)cc1)CO (stereo partly drawn) [Compound 32, 3-((3-(4′-((S)-4-hydroxy-3-(2-((S)-1-hydroxyethyl)-1H-imidazol-1-yl)but-1-yn-1-yl)-[1,1′-biphenyl]-4-yl)cyclobutyl)amino)propanenitrile]
- MIC (P. aeruginosa ATCC27835): 4 µg/mL (≈ 8.8 µM)
- MIC (P. aeruginosa 209 PAO1): 1 µg/mL (≈ 2.2 µM)
- MIC (K. pneumoniae ATCC13883): 0.5 µg/mL (≈ 1.1 µM)

SMILES: C[C@H](O)c1nccn1[C@@H](C#Cc1ccc(-c2ccc(C3CC(NC(C#N)CO)C3)cc2)cc1)CO (stereo partly drawn) [Compound 33, 3-hydroxy-2-((3-(4′-((S)-4-hydroxy-3-(2-((S)-1-hydroxyethyl)-1H-imidazol-1-yl)but-1-yn-1-yl)-[1,1′-biphenyl]-4-yl)cyclobutyl)amino)propanenitrile]
- MIC (P. aeruginosa ATCC27835): 2 µg/mL (≈ 4.25 µM)
- MIC (P. aeruginosa 209 PAO1): 2 µg/mL (≈ 4.25 µM)
- MIC (K. pneumoniae ATCC13883): 4 µg/mL (≈ 8.5 µM)

SMILES: C[C@H](O)c1nccn1[C@@H](C#Cc1ccc(-c2ccc(C3CC(NCC(F)(F)CO)C3)cc2)cc1)CO (stereo partly drawn) [Compound 34, (S)-4-(4′-(3-((2,2-difluoro-3-hydroxypropyl)amino)cyclobutyl)-[1,1′-biphenyl]-4-yl)-2-(2-((S)-1-hydroxyethyl)-1H-imidazol-1-yl)but-3-yn-1-ol]
- MIC (P. aeruginosa ATCC27835): 4 µg/mL (≈ 8.07 µM)
- MIC (E. coli ATCC25922): 0.5 µg/mL (≈ 1.01 µM)
- MIC (P. aeruginosa 209 PAO1): 2 µg/mL (≈ 4.04 µM)
- MIC (K. pneumoniae ATCC13883): 2 µg/mL (≈ 4.04 µM)

SMILES: C[C@H](O)c1nccn1[C@@H](C#Cc1ccc(-c2ccc(C3CC(NCc4noc(C(N)=O)n4)C3)cc2)cc1)CO (stereo partly drawn) [Compound 35, 3-(((3-(4′-((S)-4-hydroxy-3-(2-((S)-1-hydroxyethyl)-1H-imidazol-1-yl)but-1-yn-1-yl)-[1,1′-biphenyl]-4-yl)cyclobutyl)amino)methyl)-1,2,4-oxadiazole-5-carboxamide]
- MIC (P. aeruginosa ATCC27835): 4 µg/mL (≈ 7.6 µM)
- MIC (E. coli ATCC25922): 0.5 µg/mL (≈ 0.949 µM)
- MIC (P. aeruginosa 209 PAO1): 4 µg/mL (≈ 7.6 µM)
- MIC (K. pneumoniae ATCC13883): 2 µg/mL (≈ 3.8 µM)

SMILES: C[C@H](O)c1nccn1[C@@H](C#Cc1ccc(-c2ccc([C@H]3C[C@H](NS(C)(=O)=O)C3)cc2)cc1)CO [Compound 36, N-((1S,3r)-3-(4′-((S)-4-hydroxy-3-(2-((S)-1-hydroxyethyl)-1H-imidazol-1-yl)but-1-yn-1-yl)-[1,1′-biphenyl]-4-yl)cyclobutyl)methanesulfonamide]
- MIC (P. aeruginosa ATCC27835): 2 µg/mL (≈ 4.17 µM)
- MIC (E. coli ATCC25922): 0.25 µg/mL (≈ 0.521 µM)
- MIC (P. aeruginosa 209 PAO1): 1 µg/mL (≈ 2.09 µM)
- MIC (K. pneumoniae ATCC13883): 1 µg/mL (≈ 2.09 µM)
